Source: US12679836B2, “4H-pyrrolo[3,2-c]pyridin-4-one compounds” (Bayer Aktiengesellschaft, priority 2019, dated 2026)
Where two headings read alike, the source gives them in different places.

Tests used:
[1] = molecular target: T1, EGFR with insertion of SVD between D770 and N771 (EGFR ins SVD) (Homo sapiens, UniProt P00533, DUP768-770); experiment: Exon20-Mutant-EGFR(D770_N771insSVD) kinase assay (TR-FRET); type: biochemical; conditions: 2 mM ATP, several values per example where printed
T1 construct: made in house; host or cells: Sf9 insect cells (baculovirus)
T1 sequence (P00533 with tags, fused parts or gaps DUP768-770): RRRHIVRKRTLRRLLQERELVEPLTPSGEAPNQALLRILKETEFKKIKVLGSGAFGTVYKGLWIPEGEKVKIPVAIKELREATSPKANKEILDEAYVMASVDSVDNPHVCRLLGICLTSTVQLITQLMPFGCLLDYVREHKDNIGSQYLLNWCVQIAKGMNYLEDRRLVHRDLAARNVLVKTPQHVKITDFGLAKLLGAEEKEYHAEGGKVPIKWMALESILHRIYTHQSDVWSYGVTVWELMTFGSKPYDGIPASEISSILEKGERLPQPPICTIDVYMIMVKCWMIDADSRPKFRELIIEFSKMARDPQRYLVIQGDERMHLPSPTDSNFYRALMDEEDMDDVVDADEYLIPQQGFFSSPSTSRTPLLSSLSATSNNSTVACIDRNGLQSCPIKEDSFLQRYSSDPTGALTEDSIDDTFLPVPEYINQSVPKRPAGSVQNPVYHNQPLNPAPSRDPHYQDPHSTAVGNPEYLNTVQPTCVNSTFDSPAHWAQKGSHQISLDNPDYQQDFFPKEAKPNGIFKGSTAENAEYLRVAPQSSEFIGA

Bub1 = molecular target: T2, Bub1 (Homo sapiens, UniProt O43683); experiment: Bub1 TR-FRET high ATP kinase assay; type: biochemical; conditions: 2 mM ATP
T2 construct: catalytic domain of human Bub1 (amino acids 704-1085); His6 (N); made in house; host or cells: Hi5 insect cells
T2 sequence (O43683 704-1085): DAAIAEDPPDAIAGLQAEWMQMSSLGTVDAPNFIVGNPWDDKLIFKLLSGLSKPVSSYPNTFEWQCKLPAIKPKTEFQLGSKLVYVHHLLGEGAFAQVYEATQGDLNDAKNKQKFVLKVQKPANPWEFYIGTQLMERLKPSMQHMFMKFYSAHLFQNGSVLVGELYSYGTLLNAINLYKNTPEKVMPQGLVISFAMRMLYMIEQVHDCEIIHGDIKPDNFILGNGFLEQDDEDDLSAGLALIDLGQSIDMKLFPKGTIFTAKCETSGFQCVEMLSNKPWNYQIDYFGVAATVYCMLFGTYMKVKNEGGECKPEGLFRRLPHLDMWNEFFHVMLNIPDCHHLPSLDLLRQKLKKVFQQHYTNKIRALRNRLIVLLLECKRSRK
Excerpt: Bub1 High ATP Kinase Assay
Bub1-inhibitory activity of compounds of the present invention at a high ATP concentration was quantified employing the Bub1 TR-FRET high ATP kinase assay as described in the following paragraphs.
N-terminally His6-tagged recombinant catalytic domain of human Bub1 (amino acids 704-1085), expressed in insect cells (Hi5) and purified by Ni-NTA affinity chromatography and subsequent size exclusion chromatography, was used as enzyme. As substrate for the kinase reaction the biotinylated peptide biotin-Ahx-[…]—SEQ ID 7 (C-terminus in amid form) was used which can be purchased e.g. form the company Biosyntan (Berlin, Germany).

Ba/F3-EGFR-insSVD cells = Ba/F3-EGFR-insSVD cells (Homo sapiens, UniProt P00533, DUP768-770, cells depend on it); experiment: Ba/F3 cell survival assay (Cell Titer-Glo), EGFR-insSVD; type: cell-based; conditions: without IL-3, with 10 ng/mL EGF, 48 h; read-out: BA/F3 (insSVD) IC50
Ba/F3-EGFR-insSVD cells, sequence (P00533 with tags, fused parts or gaps DUP768-770): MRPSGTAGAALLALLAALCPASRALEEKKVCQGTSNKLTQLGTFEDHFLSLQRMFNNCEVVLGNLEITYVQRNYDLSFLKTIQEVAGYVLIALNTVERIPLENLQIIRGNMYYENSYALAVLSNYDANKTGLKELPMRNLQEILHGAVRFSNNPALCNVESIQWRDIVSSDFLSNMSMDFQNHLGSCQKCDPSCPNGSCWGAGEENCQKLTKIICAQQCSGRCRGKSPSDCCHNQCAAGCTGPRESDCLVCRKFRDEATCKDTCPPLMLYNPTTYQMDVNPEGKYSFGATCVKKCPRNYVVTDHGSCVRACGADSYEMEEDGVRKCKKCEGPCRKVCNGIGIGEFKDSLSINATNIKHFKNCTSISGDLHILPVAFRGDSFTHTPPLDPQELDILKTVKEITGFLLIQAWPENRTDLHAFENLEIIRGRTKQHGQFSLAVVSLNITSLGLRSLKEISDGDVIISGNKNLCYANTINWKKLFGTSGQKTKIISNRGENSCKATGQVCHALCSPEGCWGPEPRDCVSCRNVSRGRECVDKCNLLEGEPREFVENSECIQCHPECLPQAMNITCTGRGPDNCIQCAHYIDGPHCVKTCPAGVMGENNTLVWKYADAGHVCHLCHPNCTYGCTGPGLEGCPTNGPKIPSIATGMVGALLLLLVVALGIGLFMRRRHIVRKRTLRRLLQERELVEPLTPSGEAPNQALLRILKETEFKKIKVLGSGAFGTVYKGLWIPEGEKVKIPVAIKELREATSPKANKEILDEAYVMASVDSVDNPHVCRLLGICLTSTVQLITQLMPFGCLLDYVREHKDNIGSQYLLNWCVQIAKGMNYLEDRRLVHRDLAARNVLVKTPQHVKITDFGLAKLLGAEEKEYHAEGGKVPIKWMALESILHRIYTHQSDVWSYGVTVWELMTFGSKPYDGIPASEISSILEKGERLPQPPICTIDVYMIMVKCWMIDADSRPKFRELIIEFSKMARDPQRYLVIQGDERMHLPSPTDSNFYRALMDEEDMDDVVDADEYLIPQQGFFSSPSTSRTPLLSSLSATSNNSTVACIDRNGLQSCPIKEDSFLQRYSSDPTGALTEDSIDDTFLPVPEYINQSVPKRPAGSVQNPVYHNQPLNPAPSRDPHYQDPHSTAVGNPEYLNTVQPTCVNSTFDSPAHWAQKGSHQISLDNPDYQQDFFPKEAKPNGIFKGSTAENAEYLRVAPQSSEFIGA
Description: (§1) 293T cells from ATCC were transfected with pBABEpuro expression constructs for WT EGFR or EGFR-insSVD and pCL-Eco packaging vector using Fugene-6 transfection reagent from Promega. Plates were incubated at 37° C. for 48 h. Retrovirus was harvested by filtering the media supernatant through a 0.45 μm filter.
(§2) Ba/F3 cells purchased from DSMZ were grown in RPMI+10% FBS+10 ng/mL IL-3 and infected with filtered retroviral supernatant at a 1:2 dilution. Polybrene was added to a concentration of 8 μg/mL, plates were spun for 90 min, and incubated overnight at 37° C. 2 μg/mL puromycin was added to the infected cells 24 h after infection and cells were continually grown in the presence of puromycin and 10 ng/mL IL-3. Following stably expressing Ba/F3 cell lines were generated: Ba/F3-EGFR-WT, Ba/F3-EGFR-insSVD, (Ba/F3-vector-control).
(§3) For cell survival assays, Ba/F3 cells were grown to a density of 1-2 million cells per mL, spun down and resuspended in media without IL-3, and replated at a concentration 200,000-500,000 cells per mL. The cells ectopically expressing WT EGFR or EGFR-insSVD were plated with 10 ng/mL Millipore Culture grade EGF. The cells ectopically expressing pBABEpuro empty vector were plated with 10 ng/mL IL-3. 2 days later, cells were plated in 50 μL in a 384 well plate at a concentration of 4000 cells per well for cells assayed in the absence of IL-3 and 2000 cells per well for cells assayed in the presence of IL-3. 100 nL of compound was added to each well using a 100 nL pin head, and plates were incubated at 37° C. for 48 h.
(§4) Cell viability was measured by adding 20 μL of Cell Titer-Glo Luminescent Cell Viability Reagent diluted 1:3 in PBS. Plates were sealed with Perkin Elmer Top-Seal, inverted several times to mix, and immediately centrifuged at 1000 rpm for 2 min. Plates were incubated in low light conditions for 8-10 min and luminescence was measured.

Ba/F3-EGFR-WT cells = Ba/F3-EGFR-WT cells (Homo sapiens, UniProt P00533); experiment: Ba/F3 cell survival assay (Cell Titer-Glo), WT EGFR; type: cell-based; conditions: without IL-3, with 10 ng/mL EGF, 48 h; read-out: BA/F3 (wild type) IC50
Ba/F3-EGFR-WT cells, sequence (P00533 whole entry, change not shown): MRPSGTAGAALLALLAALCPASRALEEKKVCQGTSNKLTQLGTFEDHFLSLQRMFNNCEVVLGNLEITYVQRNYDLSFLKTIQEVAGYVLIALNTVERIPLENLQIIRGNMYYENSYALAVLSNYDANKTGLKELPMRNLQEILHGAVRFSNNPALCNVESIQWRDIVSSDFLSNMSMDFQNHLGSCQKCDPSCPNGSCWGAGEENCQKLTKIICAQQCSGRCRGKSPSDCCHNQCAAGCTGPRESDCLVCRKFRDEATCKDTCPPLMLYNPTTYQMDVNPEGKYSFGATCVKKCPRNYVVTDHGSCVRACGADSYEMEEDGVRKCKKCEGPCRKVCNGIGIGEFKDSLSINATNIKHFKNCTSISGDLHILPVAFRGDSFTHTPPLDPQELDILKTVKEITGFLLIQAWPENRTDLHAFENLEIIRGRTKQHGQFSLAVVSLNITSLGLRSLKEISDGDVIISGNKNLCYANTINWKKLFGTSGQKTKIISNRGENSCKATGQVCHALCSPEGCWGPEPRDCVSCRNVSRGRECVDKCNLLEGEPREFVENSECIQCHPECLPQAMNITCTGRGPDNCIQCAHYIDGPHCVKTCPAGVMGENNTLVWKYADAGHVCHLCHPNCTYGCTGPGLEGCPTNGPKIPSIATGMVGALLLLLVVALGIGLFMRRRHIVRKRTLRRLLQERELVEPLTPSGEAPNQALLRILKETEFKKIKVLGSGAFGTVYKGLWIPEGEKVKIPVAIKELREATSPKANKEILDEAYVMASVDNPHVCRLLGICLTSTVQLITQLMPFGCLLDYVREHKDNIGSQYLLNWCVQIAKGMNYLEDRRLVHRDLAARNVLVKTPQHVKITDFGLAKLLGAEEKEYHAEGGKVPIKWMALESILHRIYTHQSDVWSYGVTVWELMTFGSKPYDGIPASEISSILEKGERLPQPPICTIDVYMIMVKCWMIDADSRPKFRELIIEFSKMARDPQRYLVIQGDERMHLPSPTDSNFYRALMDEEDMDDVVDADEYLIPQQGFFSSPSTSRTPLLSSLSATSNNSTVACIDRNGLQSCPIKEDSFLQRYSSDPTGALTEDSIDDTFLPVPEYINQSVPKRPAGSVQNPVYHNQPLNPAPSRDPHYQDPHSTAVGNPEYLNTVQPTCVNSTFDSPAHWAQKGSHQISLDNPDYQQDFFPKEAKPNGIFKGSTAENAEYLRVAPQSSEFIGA
Description: as §1, §2, §3, §4

[2] = Bub1 high ATP (2 mM) IC50 [mol/l]
[3] = read-out: Bub1 high ATP (2 mM) IC50 [mol/l]

In the case of `COc1c(Cl)cc(F)cc1Nc1c(-c2ccncc2OC[C@@H]2CN(CC(F)(F)F)CCO2)[nH]c2c1C(=O)NCC2` [Example 28, 3-(3-chloro-5-fluoro-2-methoxyanilino)-2-(3-{[(2S)-4-(2,2,2-trifluoroethyl)morpholin-2-yl]methoxy}pyridin-4-yl)-1,5,6,7-tetrahydro-4H-pyrrolo[3,2-c]pyridin-4-one], the “mutEGFR (D770_N771insSVD) kinase assay IC50” value (from here on “mutEGFR”) [1] is reported as 0.249 nM, the IC50 (Bub1; [2]) is reported as > 20000 nM and the GI50 (Ba/F3-EGFR-insSVD cells) is reported as 126 nM. It also gave a GI50 (Ba/F3-EGFR-WT cells) of 1240 nM.
In the case of `Cc1c(F)cccc1Nc1c(-c2ccncc2OCC2CN(C)CCO2)[nH]c2c1C(=O)NCC2` (single isomer, unassigned) [Example 64, 3-(3-fluoro-2-methylanilino)-2-(3-{[4-methylmorpholin-2-yl]methoxy}pyridin-4-yl)-1,5,6,7-tetrahydro-4H-pyrrolo[3,2-c]pyridin-4-one], the “mutEGFR” value [1] is reported as 0.187 nM, the IC50 (Bub1; [3]) is reported as > 20000 nM and the GI50 (Ba/F3-EGFR-insSVD cells) is reported as 7.58 nM. The GI50 (Ba/F3-EGFR-WT cells) was 271 nM.
With `CN1CCO[C@H](COc2cnccc2-c2[nH]c3c(c2Nc2cccc(F)c2CC(F)F)C(=O)NCC3)C1` [Example 41, 3-[2-(2,2-difluoroethyl)-3-fluoroanilino]-2-(3-{[(2S)-4-methylmorpholin-2-yl]methoxy}pyridin-4-yl)-1,5,6,7-tetrahydro-4H-pyrrolo[3,2-c]pyridin-4-one] the “mutEGFR” value [1] was 0.291 nM, the IC50 (Bub1; [2]) was > 20000 nM and the GI50 (Ba/F3-EGFR-insSVD cells) was 77.5 nM. For the same compound, the GI50 (Ba/F3-EGFR-WT cells) was 695 nM.
For `COc1c(Cl)cccc1Nc1c(-c2ccncc2OCC2CN(C)CCO2)[nH]c2c1C(=O)NCC2` (single isomer, unassigned) [Example 16, 3-(3-chloro-2-methoxyanilino)-2-(3-{[4-methylmorpholin-2-yl]methoxy}pyridin-4-yl)-1,5,6,7-tetrahydro-4H-pyrrolo[3,2-c]pyridin-4-one], the “mutEGFR” value [1] was 0.228 nM, the IC50 (Bub1; [2]) was > 20000 nM and the GI50 (Ba/F3-EGFR-insSVD cells) was 126 nM. It also gave a GI50 (Ba/F3-EGFR-WT cells) of 1050 nM.
For `CCc1c(Cl)cccc1Nc1c(-c2ccncc2OCC2COCCO2)[nH]c2c1C(=O)NCC2` (centres unmarked) [Example 52, 3-(3-chloro-2-ethyl-anilino)-2-[3-(1,4-dioxan-2-ylmethoxy)-4-pyridyl]-1,5,6,7-tetrahydropyrrolo[3,2-c]pyridin-4-one], the “mutEGFR” value [1] was 0.226 nM, the IC50 (Bub1; [2]) was 729 nM and the GI50 (Ba/F3-EGFR-insSVD cells) was 13.4 nM. For the same compound, the GI50 (Ba/F3-EGFR-WT cells) was 547 nM.
For `COc1c(Cl)cccc1Nc1c(-c2ccncc2OC(C)C2CN(C)CCO2)[nH]c2c1C(=O)NCC2` (single isomer, unassigned) [Example 74, 3-(3-chloro-2-methoxyanilino)-2-[3-({1-[-4-methylmorpholine-2-yl]ethyl}oxy)pyridin-4-yl]-1,5,6,7-tetrahydro-4H-pyrrolo[3,2-c]pyridin-4-one], the “mutEGFR” value [1] was 0.661 nM, the IC50 (Bub1; [3]) was > 20000 nM and the GI50 (Ba/F3-EGFR-insSVD cells) was 51.1 nM. For the same compound, the GI50 (Ba/F3-EGFR-WT cells) was 828 nM.
With `CCc1c(F)cccc1Nc1c(-c2ccncc2OCC2COCCO2)[nH]c2c1C(=O)NCC2` (single isomer, unassigned) [Example 67, 2-(3-{[1,4-dioxan-2-yl]methoxy}pyridin-4-yl)-3-(2-ethyl-3-fluoroanilino)-1,5,6,7-tetrahydro-4H-pyrrolo[3,2-c]pyridin-4-one] the “mutEGFR” value [1] was 0.217 nM, the IC50 (Bub1; [2]) was 2080 nM and the GI50 (Ba/F3-EGFR-insSVD cells) was 29 nM. For the same compound, the GI50 (Ba/F3-EGFR-WT cells) was 198 nM.
For `COc1c(Cl)cccc1Nc1c(-c2ccncc2O[C@@H](C)C2COCCO2)[nH]c2c1C(=O)NCC2` (single isomer, unassigned) [Example 59, 3-(3-chloro-2-methoxyanilino)-2-{3-[(1 S)-1-(1,4-dioxan-2-yl)ethoxy]pyridin-4-yl}-1,5,6,7-tetrahydro-4H-pyrrolo[3,2-c]pyridin-4-one], the “mutEGFR” value [1] was 0.235 nM, the IC50 (Bub1; [2]) was 12200 nM and the GI50 (Ba/F3-EGFR-insSVD cells) was 18.6 nM. For the same compound, the GI50 (Ba/F3-EGFR-WT cells) was 336 nM.
For `COc1c(F)cccc1Nc1c(-c2ccncc2OCC2CN(C)CCO2)[nH]c2c1C(=O)NCC2` (centres unmarked) [Example 12, 3-(3-fluoro-2-methoxyanilino)-2-{3-[(4-methylmorpholin-2-yl)methoxy]pyridin-4-yl}-1,5,6,7-tetrahydro-4H-pyrrolo[3,2-c]pyridin-4-one], the “mutEGFR” value [1] was 0.0794 nM, the IC50 (Bub1; [2]) was > 20000 nM and the GI50 (Ba/F3-EGFR-insSVD cells) was 22.8 nM. For the same compound, the GI50 (Ba/F3-EGFR-WT cells) was 574 nM.
`Cc1c(Cl)cccc1Nc1c(-c2ccncc2OC[C@H]2COCCO2)[nH]c2c1C(=O)NCC2` (single isomer, unassigned) [Example 51] was tested, and the “mutEGFR” value [1] was 0.136 nM, the IC50 (Bub1; [2]) was 1520 nM and the GI50 (Ba/F3-EGFR-insSVD cells) was 46.7 nM. It also gave a GI50 (Ba/F3-EGFR-WT cells) of 742 nM.
`Cc1c(F)cccc1Nc1c(-c2ccncc2OCC2COCCO2)[nH]c2c1C(=O)NCC2` (single isomer, unassigned) [Example 49, 2-[3-(1,4-dioxan-2-ylmethoxy)-4-pyridyl]-3-(3-fluoro-2-methyl-anilino)-1,5,6,7-tetrahydropyrrolo[3,2-c]pyridin-4-one] was tested, and the “mutEGFR” value [1] was 0.17 nM, the IC50 (Bub1; [2]) was 3930 nM and the GI50 (Ba/F3-EGFR-insSVD cells) was 53.6 nM. The GI50 (Ba/F3-EGFR-WT cells) was 785 nM.
`Cc1c(Cl)cccc1Nc1c(-c2ccncc2OC[C@H]2COCCN2C)[nH]c2c1C(=O)NCC2` [Example 43, 3-(3-chloro-2-methylanilino)-2-(3-{[(3R)-4-methylmorpholin-3-yl]methoxy}pyridin-4-yl)-1,5,6,7-tetrahydro-4H-pyrrolo[3,2-c]pyridin-4-one] was tested, and the “mutEGFR” value [1] was 0.225 nM, the IC50 (Bub1; [2]) was 2410 nM and the GI50 (Ba/F3-EGFR-insSVD cells) was 60.5 nM. For the same compound, the GI50 (Ba/F3-EGFR-WT cells) was 1250 nM.
In the case of `COc1c(F)cccc1Nc1c(-c2ccncc2OCCC2COCCO2)[nH]c2c1C(=O)NCC2` (single isomer, unassigned) [Example 35, 2-(3-{2-[1,4-dioxan-2-yl]ethoxy}pyridin-4-yl)-3-(3-fluoro-2-methoxyanilino)-1,5,6,7-tetrahydro-4H-pyrrolo[3,2-c]pyridin-4-one], the “mutEGFR” value [1] is reported as 0.0873 nM, the IC50 (Bub1; [2]) is reported as > 20000 nM and the GI50 (Ba/F3-EGFR-insSVD cells) is reported as 21.5 nM. The GI50 (Ba/F3-EGFR-WT cells) was 261 nM.
`COc1c(Cl)cccc1Nc1c(-c2ccncc2OCCC2COCCO2)[nH]c2c1C(=O)NCC2` (single isomer, unassigned) [Example 26, 3-(3-chloro-2-methoxyanilino)-2-{3-[2-(4-dioxan-2-yl)ethoxy]pyridin-4-yl}-1,5,6,7-tetrahydro-4H-pyrrolo[3,2-c]pyridin-4-one] was tested, and the “mutEGFR” value [1] was 0.213 nM, the IC50 (Bub1; [2]) was 1080 nM and the GI50 (Ba/F3-EGFR-insSVD cells) was 89.9 nM. It also gave a GI50 (Ba/F3-EGFR-WT cells) of 839 nM.
With `O=C1NCCc2[nH]c(-c3ccncc3OCC3COCCO3)c(Nc3cccc(Cl)c3Cl)c21` (centres unmarked) [Example 7, 3-(2,3-dichloroanilino)-2-{3-[(1,4-dioxan-2-yl)methoxy]pyridin-4-yl}-1,5,6,7-tetrahydro-4H-pyrrolo[3,2-c]pyridin-4-one] the “mutEGFR” value [1] was 0.137 nM, the IC50 (Bub1; [2]) was 10600 nM and the GI50 (Ba/F3-EGFR-insSVD cells) was 18 nM. It also gave a GI50 (Ba/F3-EGFR-WT cells) of 292 nM.
With `COc1c(Cl)cccc1Nc1c(-c2ccncc2OC[C@H]2COCCN2C)[nH]c2c1C(=O)NCC2` [Example 11, 3-(3-chloro-2-methoxyanilino)-2-(3-{[(3R)-4-methylmorpholin-3-yl]methoxy}pyridin-4-yl)-1,5,6,7-tetrahydro-4H-pyrrolo[3,2-c]pyridin-4-one] the “mutEGFR” value [1] was 0.286 nM, the IC50 (Bub1; [2]) was 4330 nM and the GI50 (Ba/F3-EGFR-insSVD cells) was 18.7 nM. The GI50 (Ba/F3-EGFR-WT cells) was 701 nM.
With `COc1c(F)cccc1Nc1c(-c2ccncc2OCC2COC(C)(C)CO2)[nH]c2c1C(=O)NCC2` (single isomer, unassigned) [Example 34, 2-(3-{[5,5-dimethyl-1,4-dioxan-2-yl]methoxy}pyridin-4-yl)-3-(3-fluoro-2-methoxyanilino)-1,5,6,7-tetrahydro-4H-pyrrolo[3,2-c]pyridin-4-one] the “mutEGFR” value [1] was 0.193 nM, the IC50 (Bub1; [3]) was > 20000 nM and the GI50 (Ba/F3-EGFR-insSVD cells) was 12 nM. For the same compound, the GI50 (Ba/F3-EGFR-WT cells) was 204 nM.
